Where two headings read alike, the source gives them in different places.
Columns and labels:
Assay type in all cases: biochemical
PLK2 = PLK2 (Homo sapiens, UniProt Q9NYY3); experiment: PLK TR-FRET peptide assay, PLK2; details: for IC50: PLK TR-FRET peptide assay, read-out: Plk2 IC50
PLK1 = PLK1 (Homo sapiens, UniProt P53350); experiment: PLK TR-FRET peptide assay, PLK1
PLK3 = PLK3 (Homo sapiens, UniProt Q9H4B4); experiment: PLK TR-FRET peptide assay, PLK3
[1] = GST-PLK3, 15 min reaction, read-out: Plk3 IC50

Sequence of PLK2 (Q9NYY3 whole entry): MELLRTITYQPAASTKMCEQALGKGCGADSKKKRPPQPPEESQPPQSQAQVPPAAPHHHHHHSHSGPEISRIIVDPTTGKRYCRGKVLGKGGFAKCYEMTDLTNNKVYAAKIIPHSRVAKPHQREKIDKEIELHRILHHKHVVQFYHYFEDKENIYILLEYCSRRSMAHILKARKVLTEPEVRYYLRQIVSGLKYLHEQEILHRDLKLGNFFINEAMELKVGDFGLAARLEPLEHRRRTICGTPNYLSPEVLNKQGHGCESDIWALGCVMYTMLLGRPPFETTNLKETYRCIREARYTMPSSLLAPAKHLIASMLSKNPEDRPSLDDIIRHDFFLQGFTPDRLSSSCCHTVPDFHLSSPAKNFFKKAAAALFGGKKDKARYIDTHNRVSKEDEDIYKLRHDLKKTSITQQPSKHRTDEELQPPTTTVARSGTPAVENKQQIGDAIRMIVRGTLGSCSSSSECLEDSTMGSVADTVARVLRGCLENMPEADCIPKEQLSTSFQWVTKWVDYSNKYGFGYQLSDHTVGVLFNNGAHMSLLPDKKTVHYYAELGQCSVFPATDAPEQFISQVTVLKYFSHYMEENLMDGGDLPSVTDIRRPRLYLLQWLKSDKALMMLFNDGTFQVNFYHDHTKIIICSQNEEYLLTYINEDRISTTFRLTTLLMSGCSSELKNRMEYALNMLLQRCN
Sequence of PLK1 (P53350 whole entry): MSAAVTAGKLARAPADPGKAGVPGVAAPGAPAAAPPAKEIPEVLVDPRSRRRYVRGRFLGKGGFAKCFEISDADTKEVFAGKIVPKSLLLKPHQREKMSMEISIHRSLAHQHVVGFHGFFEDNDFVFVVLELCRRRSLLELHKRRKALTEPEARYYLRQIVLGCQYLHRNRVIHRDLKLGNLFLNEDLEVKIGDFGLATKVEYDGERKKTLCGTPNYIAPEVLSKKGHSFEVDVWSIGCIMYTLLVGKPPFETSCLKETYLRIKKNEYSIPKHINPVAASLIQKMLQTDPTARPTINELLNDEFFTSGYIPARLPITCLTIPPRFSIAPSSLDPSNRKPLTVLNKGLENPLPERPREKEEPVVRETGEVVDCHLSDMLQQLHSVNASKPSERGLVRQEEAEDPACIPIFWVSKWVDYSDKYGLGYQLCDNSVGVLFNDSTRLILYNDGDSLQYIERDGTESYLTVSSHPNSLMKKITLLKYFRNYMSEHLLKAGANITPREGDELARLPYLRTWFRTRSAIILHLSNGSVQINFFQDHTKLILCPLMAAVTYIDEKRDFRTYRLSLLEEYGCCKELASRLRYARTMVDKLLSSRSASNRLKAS
Sequence of PLK3 (Q9H4B4 whole entry): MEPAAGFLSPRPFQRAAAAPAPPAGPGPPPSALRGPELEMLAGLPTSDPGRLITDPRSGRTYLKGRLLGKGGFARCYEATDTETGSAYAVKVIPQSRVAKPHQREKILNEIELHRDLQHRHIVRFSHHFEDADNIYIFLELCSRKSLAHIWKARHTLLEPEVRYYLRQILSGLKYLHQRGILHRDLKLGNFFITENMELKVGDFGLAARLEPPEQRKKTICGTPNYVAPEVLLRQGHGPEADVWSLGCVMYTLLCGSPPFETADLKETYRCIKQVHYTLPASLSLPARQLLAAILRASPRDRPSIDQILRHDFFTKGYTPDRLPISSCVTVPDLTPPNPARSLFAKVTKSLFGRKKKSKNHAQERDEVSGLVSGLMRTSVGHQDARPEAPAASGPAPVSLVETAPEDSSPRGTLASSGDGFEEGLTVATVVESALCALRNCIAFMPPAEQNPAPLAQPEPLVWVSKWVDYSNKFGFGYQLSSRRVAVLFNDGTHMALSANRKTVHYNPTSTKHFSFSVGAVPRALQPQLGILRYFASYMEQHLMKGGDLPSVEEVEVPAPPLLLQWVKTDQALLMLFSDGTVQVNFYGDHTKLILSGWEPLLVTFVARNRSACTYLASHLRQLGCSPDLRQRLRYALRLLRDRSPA

Compound | IC50 (PLK2; GST-PLK2) [µM] | IC50 (PLK1; GST-PLK1) [µM] | IC50 (PLK3; GST-PLK3, read-out: Plk3 IC50) [µM] | IC50 (PLK2; GST-PLK2, 60 min reaction) [µM] | IC50 (PLK1; GST-PLK1, 60 min reaction) [µM] | IC50 (PLK3; [1]) [µM] | relative PLK2 activity of the enantiomers (PLK2; compared with the opposite enantiomer)
CC[C@@H]1C(=O)N(C)c2cnc(-c3ccncc3NC(=O)CC(C)(C)C)nc2N1C1CCCC1 [Example 108, (R)—N-(4-(8-cyclopentyl-7-ethyl-5-methyl-6-oxo-5,6,7,8-tetrahydropteridin-2-yl)pyridin-3-yl)-3,3-dimethylbutanamide] |  |  |  | 10 to 50 | 10 to 50 | > 50 | 
CC[C@@H]1C(=O)N(C)c2cnc(-n3nccc3-c3ccccc3)nc2N1C1CCC1 [Example 207, (R)-8-cyclobutyl-7-ethyl-5-methyl-2-(5-phenyl-1H-pyrazol-1-yl)-7,8-dihydropteridin-6(5H)-one] |  |  |  | < 1 | < 1 | 1 to 10 | 
[2H]C([2H])([2H])N1C(=O)[C@H](C([2H])([2H])C([2H])([2H])[2H])N(C([2H])(C([2H])([2H])[2H])C([2H])([2H])[2H])c2nc(-n3ccnc3-c3cccc(F)c3)ncc21 [Example 201, (S)-7-perdeuteroethyl-2-(2-(3-fluorophenyl)-1H-imidazol-1-yl)-8-perdeuteroisopropyl-5-trideuteromethyl-7,8-dihydropteridin-6(5H)-one] |  |  |  | 1 to 10 | 10 to 50 | > 50 | 
CC[C@@H]1C(=O)N(C)c2cnc(-n3ccnc3N3C(=O)CCC3=O)nc2N1C1CCC1 [Example 112, (R)-1-(1-(8-cyclobutyl-7-ethyl-5-methyl-6-oxo-5,6,7,8-tetrahydropteridin-2-yl)-1H-imidazol-2-yl)pyrrolidine-2,5-dione] |  |  |  | 10 to 50 | 10 to 50 | > 50 | 
CC[C@@H]1C(=O)N(C)c2cnc(-c3ccncc3NC(C)=O)nc2N1C(C)C [Example 118, (R)—N-(4-(7-ethyl-8-isopropyl-5-methyl-6-oxo-5,6,7,8-tetrahydropteridin-2-yl)pyridin-3-yl)acetamide] |  |  |  | 1 to 10 | > 50 | > 50 | 
CC[C@@H]1C(=O)N(C)c2cnc(-n3ccnc3Cc3ccccc3)nc2N1C1CCCC1 [Example 75, (R)-2-(2-benzyl-1H-imidazol-1-yl)-8-cyclopentyl-7-ethyl-5-methyl-7,8-dihydropteridin-6(5H)-one] |  |  |  | < 1 | 1 to 10 | 10 to 50 | 
CC[C@@H]1C(=O)N(C)c2cnc(-c3c[nH]nc3-c3ccccc3)nc2N1C(C)C [Example 164, (R)-7-ethyl-8-isopropyl-5-methyl-2-(3-phenyl-1H-pyrazol-4-yl)-7,8-dihydropteridin-6(5H)-one] |  |  |  | < 1 | < 1 | < 1 | 
CC[C@@H]1C(=O)N(C)c2cnc(-c3cccc(C(N)=O)c3)nc2N1C1CCCC1 [Example 66, (R)-3-(8-cyclopentyl-7-ethyl-5-methyl-6-oxo-5,6,7,8-tetrahydropteridin-2-yl)benzamide] |  |  |  | < 1 | < 1 | 1 to 10 | 
CC[C@@H]1C(=O)N(C)c2cnc(-n3ccnc3-c3cncnc3)nc2N1C1CC1 [Example 143, (R)-8-cyclopropyl-7-ethyl-5-methyl-2-(2-(pyrimidin-5-yl)-1H-imidazol-1-yl)-7,8-dihydropteridin-6(5H)-one] |  |  |  | 1 to 10 | 10 to 50 | 10 to 50 | 
CC[C@@H]1C(=O)N(C)c2cnc(-n3cnc(-c4ccccc4)c3)nc2N1C1CCCC1 [Example 36, (R)-8-cyclopentyl-7-ethyl-5-methyl-2-(4-phenyl-1H-imidazol-1-yl)-7,8-dihydropteridin-6(5H)-one] |  |  |  | < 1 | < 1 | 10 to 50 | 

The next lines start with the values.

IC50 (PLK2; GST-PLK2) [µM] | IC50 (PLK1; GST-PLK1) [µM] | IC50 (PLK3; GST-PLK3, read-out: Plk3 IC50) [µM] | IC50 (PLK2; GST-PLK2, 60 min reaction) [µM] | IC50 (PLK1; GST-PLK1, 60 min reaction) [µM] | IC50 (PLK3; [1]) [µM] | relative PLK2 activity of the enantiomers (PLK2; compared with the opposite enantiomer) | Compound
> 50 | > 50 | > 50 |  |  |  |  | CC[C@H]1C(=O)N(C)c2cnc(-c3cnsc3-c3ccc(F)cc3)nc2N1c1cccc(C#N)c1 [Example 392, (S)-3-(7-ethyl-2-(5-(4-fluorophenyl)isothiazol-4-yl)-5-methyl-6-oxo-6,7-dihydropteridin-8(5H)-yl)benzonitrile]
 |  |  | < 1 | < 1 | 1 to 10 |  | CC[C@@H]1C(=O)N(C)c2cnc(-c3cncs3)nc2N1C1CCCC1 [Example 355, (R)-8-cyclopentyl-7-ethyl-5-methyl-2-(thiazol-5-yl)-7,8-dihydropteridin-6(5H)-one]
 |  |  | 10 to 50 | > 50 | > 50 |  | CCC12CCCCN1c1nc(-n3ccnc3)ncc1N(C)C2=O (racemic) [Example 283, (+/−) 6a-ethyl-2-(1H-imidazol-1-yl)-5-methyl-7,8,9,10-tetrahydro-5H-pyrido[2,1-h]pteridin-6(6aH)-one]
 |  |  | 10 to 50 | > 50 | > 50 |  | CC[C@]12CCCCN1c1nc(-n3ccnc3-c3ccc(F)cc3F)ncc1N(C)C2=O [Example 270, (R)-2-(2-(2,4-difluorophenyl)-1H-imidazol-1-yl)-6a-ethyl-5-methyl-7,8,9,10-tetrahydro-5H-pyrido[2,1-h]pteridin-6(6aH)-one]
 |  |  | < 1 | > 50 | > 50 |  | CCC12CCCCN1c1nc(-n3ccnc3-c3cc(F)c(F)c(F)c3)ncc1N(C)C2=O (racemic) [Example 256, (+/−) 6a-ethyl-5-methyl-2-(2-(3,4,5-trifluorophenyl)-1H-imidazol-1-yl)-7,8,9,10-tetrahydro-5H-pyrido[2,1-h]pteridin-6(6aH)-one]
 |  |  | 1 to 10 | 10 to 50 | 10 to 50 |  | CC[C@@H]1CC[C@@]2(CC)C(=O)N(C)c3cnc(-n4ccnc4C)nc3N12 [Example 325, (6aS,9R)-6a,9-diethyl-5-methyl-2-(2-methyl-1H-imidazol-1-yl)-6a,7,8,9-tetrahydropyrrolo[2,1-h]pteridin-6(5H)-one]
 |  |  | < 1 | 10 to 50 | 10 to 50 | more active compound | CN1C(=O)[C@@H](CC(F)(F)F)N(CCC(F)(F)F)c2nc(-n3ccnc3)ncc21 [Example 301, (R)-2-(1H-imidazol-1-yl)-5-methyl-7-(2,2,2-trifluoroethyl)-8-(3,3,3-trifluoropropyl)-7,8-dihydropteridin-6(5H)-one]
 |  |  | < 1 | 10 to 50 | 10 to 50 |  | CC[C@@]12CCCN1c1nc(-n3ccnc3-c3ccc(F)c(Cl)c3)ncc1N(C)C2=O [Example 213, (S)-2-(2-(3-chloro-4-fluorophenyl)-1H-imidazol-1-yl)-6a-ethyl-5-methyl-6a,7,8,9-tetrahydropyrrolo[2,1-h]pteridin-6(5H)-one]
 |  |  | 1 to 10 | 10 to 50 | 10 to 50 |  | CC[C@@]12CCCN1c1nc(-c3cncnc3-c3ccccc3)ncc1N(C)C2=O [Example 222, (S)-6a-ethyl-5-methyl-2-(4-phenylpyrimidin-5-yl)-6a,7,8,9-tetrahydropyrrolo[2,1-h]pteridin-6(5H)-one]
< 1 | 1 to 10 | 1 to 10 |  |  |  |  | CCC1C(=O)N(C)c2cnc(-c3cnsc3-c3ccc(F)cc3)nc2N1c1cccc(C#N)c1 (racemic) [Example 401, 3-(7-ethyl-2-(5-(4-fluorophenyl)isothiazol-4-yl)-5-methyl-6-oxo-6,7-dihydropteridin-8(5H)-yl)benzonitrile]
 |  |  | < 1 | < 1 | 1 to 10 |  | CC[C@@H]1C(=O)N(C)c2cnc(-n3ccnc3-c3cccc(F)c3F)nc2N1C1CCOC1 (stereo partly drawn) [Example 253, (7R)-2-(2-(2,3-difluorophenyl)-1H-imidazol-1-yl)-7-ethyl-5-methyl-8-(tetrahydrofuran-3-yl)-7,8-dihydropteridin-6(5H)-one]

Source: US8541418B2, “Inhibitors of polo-like kinase” (Elan Pharmaceutical, Inc., priority 2009, dated 2013)
